From patent publication US11987555B2, “Malassezin and analogs thereof as skin brightening agents” (Versicolor Technologies, LLC, priority 2016, dated 2024)
Read-outs that look alike come from different tables or passages of the source.

Columns and labels:
MeWo cells [1] = experiment: Cell morphology after treatment (micrographs); assay type: cell-based; details: 100 μM of test compound, 6 hours
Experimental: FIGS. 5A-5K are micrographs showing MeWo cell morphology after 6 hours of treatment with various concentrations of CV-8684, CV-8685, CV-8688, DMSO, and staurosporine.
(§1) Typical cell morphology after various treatments is shown in FIGS. 5A-5K, 6A-6K, 7A-7K, 8A-8K, 9A-9K, 10A-10K, 11A-11K, and 12A-12K.

WM115 cells [2] = experiment: Cell morphology after treatment (micrographs); assay type: cell-based; details: 100 μM of test compound, 6 hours
Experimental: FIGS. 9A-9K are micrographs showing WM115 cell morphology after 6 hours of treatment with various concentrations of CV-8684, CV-8685, CV-8688, DMSO, and staurosporine.
as §1

MeWo cells [3] = experiment: Additional annexin V assay (3 doses, 6-72 hours); assay type: cell-based; details: 6 hours, doses 100, 10, 1 μM
Experimental: (§2) To further investigate the impact of test compounds on apoptosis, multiple readouts, covering different stages of apoptosis, were carried out on both MeWo and WM115 cells. Both cell types were treated with test compounds at 3 doses (100 μM, 10 μM, and 1 μM). Staurosporine was used as a positive control. […] The test compounds evaluated were CV-8684, CV-8685, and CV-8688.
(§3) Cell seeding was performed as discussed above with the following exceptions: the final cell density was 4,000 cells/well for 6-hour and 24-hour detections, whereas 2,000 cells/well were used for 48-hour and 72-hour detections. For each time point, 384-well clear bottom plates (Corning 3712) and solid white bottom plates (Corning 3570) were prepared. The plates were incubated as discussed above.
(§4) For preparation of the compound source plate, each test compound was dissolved in DMSO to 10 mM stock. Two additional concentrations were generations by 10-fold dilution to 1 mM and 0.1 mM. Staurosporine was used as positive control and 1% DMSO was employed as vehicle (negative) control. The compound source plate was spun at room temperature at 1,000 RPM for 1 minute and agitated using a plate shaker for 2 minutes.
(§5) 400 nL of test compound was transferred from the compound source plate to 384-well culture plates using Echo550 liquid handler. After 6, 24, 48, and 72 hours, the plates were removed from the incubator for detections.
(§6) Culture media was removed and cells were washed twice with PBS. 20 μL of pre-mixed annexin V-FITC working solution was added to each well. The cells were incubated at room temperature for 20 minutes. Plates were read using Acumen eX3 to count the number of FITC-positive cells.

WM115 cells [4] = experiment: Additional annexin V assay (3 doses, 6-72 hours); assay type: cell-based; details: 6 hours, doses 100, 10, 1 μM
Experimental: as §2, §3, §4, §5, §6

MeWo cells [5] = experiment: CellTiter-Glo cell viability assay; assay type: cell-based; details: doses 100, 10, 1 μM, 6-72 hours
Experimental: (§7) CellTiter-Glo® 2.0 assay was purchased from Promega.
(§8) CellTiter-Glo® reagents were thawed and equilibrated to room temperature before the experiment. 40 μL of CellTiter-Glo® reagent was then added to each well for detection (at 1:1 ratio to culture medium). The plates were then incubated at room temperature for 30 minutes and read using EnSpire (PerkinElmer) plate reader. The remaining activity was calculated according to the following formula: Remaining Activity (%)=100%×(Lumsample−Lumbkg)/(Lumvehicle−Lumbkg).

WM115 cells [6] = experiment: CellTiter-Glo cell viability assay; assay type: cell-based; details: doses 100, 10, 1 μM, 6-72 hours
Experimental: as §7, §8

MelanoDerm™ Skin Model = experiment: MelanoDerm assay, visual pigmentation; assay type: cell-based, human; details: day 7; 200 μM and 50 μM, topical every 48 hours
Experimental: FIGS. 16A-16K are photographs of MelanoDerm™ matrices at either day 0 or day 7 after exposure to no treatment (FIG. 16A), sterile deionized water (FIG. 16B), 1% kojic acid (FIG. 16C), 0.2% DMSO (FIG. 16D), 0.05% DMSO (FIG. 16E), 200 μM CV-8684 (FIG. 16F), 50 μM CV-8684 (FIG. 16G), 200 μM CV-8686 (FIG. 16H), 50 μM CV-8686 (FIG. 16I), 200 μM CV-8688 (FIG. 16J), and 50 μM CV-8688 (FIG. 16K).
The MelanoDerm™ Skin Model provided by MatTek Corporation (Ashland, MA) will be used in this study. The MelanoDerm™ tissue consists of normal, human-derived epidermal keratinocytes (NHEKs) and melanocytes (NHMs) which have been cultured to form a multilayered, highly differentiated model of the human epidermis. The NHMs within co-cultures undergo spontaneous melanogenesis leading to tissues of varying levels of pigmentation. The cultures are grown on cell culture inserts at the air-liquid interface, allowing for topical application of skin modulators. […]
At the end of the 7-day trial, the MelanoDerm™ tissues dosed with the negative or positive control, and with each test article will be photographed using a digital camera to aid in the visual assessment of the degree of pigmentation of the tissues at the end of the assay (Day 7). […] Then, the viability of the tissues will be determined by MTT reduction as indicated below.

[7] = target: T1, arylhydrocarbon receptor (AhR) (Homo sapiens, UniProt P35869); details: Wille et al., 2001; cited from earlier work
T1 sequence (P35869 11-848): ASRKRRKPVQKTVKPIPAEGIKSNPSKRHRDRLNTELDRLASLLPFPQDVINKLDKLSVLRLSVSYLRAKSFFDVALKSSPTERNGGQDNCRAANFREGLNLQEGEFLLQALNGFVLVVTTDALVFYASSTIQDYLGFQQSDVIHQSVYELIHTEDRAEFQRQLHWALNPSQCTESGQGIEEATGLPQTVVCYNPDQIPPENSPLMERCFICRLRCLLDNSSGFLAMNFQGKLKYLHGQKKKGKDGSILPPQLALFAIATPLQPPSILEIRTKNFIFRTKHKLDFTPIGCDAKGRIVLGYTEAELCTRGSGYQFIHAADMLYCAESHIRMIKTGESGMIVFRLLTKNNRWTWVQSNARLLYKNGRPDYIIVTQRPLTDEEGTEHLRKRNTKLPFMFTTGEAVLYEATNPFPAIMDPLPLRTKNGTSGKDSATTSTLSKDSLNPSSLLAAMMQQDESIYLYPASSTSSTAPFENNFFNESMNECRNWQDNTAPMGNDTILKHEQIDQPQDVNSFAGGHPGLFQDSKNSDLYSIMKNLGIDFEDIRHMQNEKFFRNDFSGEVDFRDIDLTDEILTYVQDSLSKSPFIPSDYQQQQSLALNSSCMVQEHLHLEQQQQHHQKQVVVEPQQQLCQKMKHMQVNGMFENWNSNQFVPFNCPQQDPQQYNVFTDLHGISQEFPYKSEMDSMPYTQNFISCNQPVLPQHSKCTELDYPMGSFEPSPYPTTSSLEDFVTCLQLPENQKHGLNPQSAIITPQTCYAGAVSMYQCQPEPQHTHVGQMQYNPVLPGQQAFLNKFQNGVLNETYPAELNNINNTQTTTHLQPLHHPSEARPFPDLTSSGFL

[8] = test system: primary human melanocytes; details: Krämer, et al., 2005; cited from earlier work
MeWo cells [9] = experiment: Lactate dehydrogenase (LDH) release assay; details: after 72-hour incubation
Experimental: (§16) The LDH assay quantitatively measures lactate dehydrogenase (“LDH”) released into the media from damaged cells as a biomarker for cytotoxicity and cytolysis.
(§17) CytoTox-ONE™ Homogenous Membrane Integrity Assay was purchased from Promega.
(§18) For the LDH release assay, plates were removed from the incubator and equilibrated at room temperature for 15 minutes. Plates were then centrifuged at 1,000 RPM for 1 minute. 20 μL of cell culture medium was transferred into a new 384-well black solid plate. Then, 20 μL of CytoTOX-ONE™was added into each well and incubated at room temperature for 10 minutes. Afterward, 10 μL of stop solution were added to each well, and the plates were agitated at 500 rpm for 1 minute. Plates were read using an excitation wavelength of 560 nm and an emission wavelength of 590 nm on EnSpire. The relative activity was calculated according to the following formula: Relative Activity (%)=100%×(Lumsample−Lumbkg)/(Lumvehicle−Lumbkg).

WM115 cells [10] = experiment: Lactate dehydrogenase (LDH) release assay; details: after 72-hour incubation
Experimental: as §16, §17, §18

MeWo cells [11] = experiment: Preliminary annexin V assay; assay type: cell-based; details: 6-hour treatment, preliminary screen
Source text: (§9) MeWo (ATCC® HTB-65™) and WM115 (ATCC® CRL-1675) cells were purchased from ATCC (Manassas, VA) and maintained in the following: for MeWo: DMEM supplemented with 10% FBS; for WM115: RPMI 1640 supplemented with 10% FBS (10% FBS, 1% stabilized antibiotic anti-mycotic solution).
(§10) In the […] stages of apoptosis, phosphatidylserine (“PS”) is translocated from the inner to the outer leaflet of the cell membrane, exposing PS to the extracellular environment, where it can be detected. Highly fluorescent annexin V conjugates provide quick and reliable detection methods for studying the externalization of PS.
(§11) During the first set of studies, both MeWo and WM115 cells were treated with test compounds at 10 doses starting from 100 μM with 3-fold dilution. Staurosporine was used as positive control. After 6-hour treatment, cell apoptosis was assessed using an annexin V assay. The test compounds evaluated were CV-8684, CV-8685, CV-8686, CV-8687, and CV-8688.
(§12) For cell seeding, cells were harvested and the cell number was determined using Countess® cell counter. Cells were then diluted with culture medium to the desired density. 40 μL of cell suspension per well was added to the required number of wells in a 384-well plate (Corning 3712—clear bottom plate). The final cell density was 6,000 cells/well. After plating, the plates were incubated at 37° C. and 5% CO2 overnight.
(§13) For preparation of compound source plate, each test compound was dissolved in DMSO to 10 mM stock. 3-fold serial dilution was performed using an EVO200™ liquid handler (TECAN) to generate ten concentrations of test compound. 0.1% DMSO was employed as vehicle (negative) control. The compound source plate was then spun at room temperature at 1,000 RPM for 1 minute and agitated using a plate shaker for 2 minutes.
(§14) For compound treatment, 40 nL of compound were transferred from the compound source plate to the 384-well culture plate using liquid handler Echo550 (LabCyte Inc.). After 6-hour incubation, the plates were removed from the incubator for detection.
(§15) For the preliminary annexin V assay, the plates were removed from the incubator and allowed to equilibrate at room temperature for 15 minutes. Culture media was then removed. 20 μL of pre-mixed annexin V-FITC and Hoechst33342 dye working solution were added to each well. The cells were then incubated at room temperature for 20 minutes. The plates were sealed and centrifuged for 1 minute at 1,000 RPM to remove bubbles. Afterward, the plate was read using an Acumen eX3 plate reader.

WM115 cells [12] = experiment: Preliminary annexin V assay; assay type: cell-based; details: 6-hour treatment, preliminary screen
Source text: as §9, §10, §11, §12, §13, §14, §15

[13] = CellTiter-Glo cell viability assay; assay type: cell-based; details: human, after 24-hour treatment, read-out: inhibition of cell viability
Experimental: as §7, §8

Q: Which cell morphology (MeWo cells [1]) does the source give for `O=Cc1c(Cc2c[nH]c3ccccc23)[nH]c2ccccc12` [CV-8684, 2-(1H-indol-3-ylmethyl)-1H-indole-3-carbaldehyde] here?
A: Its cell morphology is “significantly affected”.

Q: And the cell morphology (WM115 cells [2])?
A: The cell morphology was “significantly affected”.

Q: And the “apoptosis induction (annexin V)” value (MeWo cells [3])?
A: Its value is “induced apoptosis at the highest concentration tested”.

Q: What about the “apoptosis induction (annexin V)” value (WM115 cells [4]) of the same molecule?
A: Its value is “induced apoptosis at the highest concentration tested”.

Q: What about the “inhibition of cell viability” value (MeWo cells [5]) of the same molecule?
A: The value was “dose-dependent inhibition of cell viability”.

Q: And the “inhibition of cell viability” value (WM115 cells [6])?
A: The value was “dose-dependent inhibition of cell viability”.

Q: What about the “pigmentation of MelanoDerm tissues” value (MelanoDerm™ Skin Model) of the same molecule?
A: The value was “reduced pigmentation”.

Q: And the AhR agonist activity [7]?
A: The AhR agonist activity was “known agonist”.

Q: And the apoptosis induction [8]?
A: The apoptosis induction was “induces apoptosis”.

Q: And the LDH release (MeWo cells [9])?
A: Its LDH release is “did not induce significant release”.

Q: And the LDH release (WM115 cells [10])?
A: The LDH release was “did not induce significant release”.

Q: With `CC(c1[nH]c2ccccc2c1C=O)c1c[nH]c2ccccc12` (centres unmarked) [CV-8688] as the molecule, how does the cell morphology (MeWo cells [1]) read?
A: Its cell morphology is “significantly affected”.

Q: And the cell morphology (WM115 cells [2])?
A: Its cell morphology is “significantly affected”.

Q: And the “annexin V staining” value (MeWo cells [11])?
A: The value was “markedly increased”.

Q: And the EC50 (MeWo cells [11]; read-out: EC50 of annexin V staining)?
A: Its EC50 is 909 nM.

Q: And the “apoptosis induction (annexin V)” value (MeWo cells [3])?
A: Its value is “showed the induction effect within 6 hours of treatment in a dose-dependent manner”.

Q: And the “apoptosis induction (annexin V)” value (WM115 cells [4])?
A: The value was “showed the induction effect within 6 hours of treatment in a dose-dependent manner”.

Q: And the “inhibition of cell viability” value (MeWo cells [5])?
A: Its value is “inhibited viability of both cell types in a dose-dependent manner”.

Q: And the “inhibition of cell viability” value (WM115 cells [6])?
A: Its value is “inhibited viability of both cell types in a dose-dependent manner”.

Q: And the “pigmentation of MelanoDerm tissues” value (MelanoDerm™ Skin Model)?
A: Its value is “reduced pigmentation”.

Q: With `CN[C@@H]1C[C@H]2O[C@@](C)([C@@H]1OC)n1c3ccccc3c3c4c(c5c6ccccc6n2c5c31)C(=O)NC4` [Staurosporine, reference compound] as the molecule, how does the cell morphology (MeWo cells [1]) read?
A: Its cell morphology is “significantly affected”.

Q: What about the cell morphology (WM115 cells [2]) of the same molecule?
A: Its cell morphology is “significantly affected”.

Q: And the “annexin V staining” value (MeWo cells [11])?
A: Its value is “greatly increased”.

Q: What about the “annexin V staining” value (WM115 cells [12]) of the same molecule?
A: The value was “greatly increased”.

Q: And the cytotoxicity at 24 h ([13]; MeWo)?
A: Its cytotoxicity at 24 h is 100%.

Q: What about the cytotoxicity at 24 h ([13]; WM115) of the same molecule?
A: Its cytotoxicity at 24 h is 100%.
